Experimental data from patent US20100267561A1, “HERBICIDAL PYRIDAZINONE DERIVATIVES” (priority 2007, published 2010).

Key:
Test in all cases: Test A pre-/postemergence plant response
Assay type in all cases: in vivo
[1] = test system: blackgrass (Alopecurus myosuroides)
Description: (§1) Seeds of species selected from barnyardgrass (Echinochloa crus-galli), large crabgrass (Digitaria sanguinalis), giant foxtail (Setaria faberi), blackgrass (Alopecurus myosuroides), canarygrass (Phalaris minor), morningglory (Ipomoea coccinea), pigweed (Amaranthus retroflexus), velvetleaf (Abutilon theophrasti), wheat (Triticum aestivum), and corn (Zea mays) were planted into a blend of loam soil and sand and treated preemergence with a directed soil spray using test chemicals formulated in a non-phytotoxic solvent mixture which included a surfactant. At the same time these species were also treated with postemergence applications of test chemicals formulated in the same manner.
(§2) Plants ranged in height from 2 to 10 cm and were in the one- to two-leaf stage for the postemergence treatment. Treated plants and untreated controls were maintained in a greenhouse for approximately 10 days, after which time all treated plants were compared to untreated controls and visually evaluated for injury. Plant response ratings, summarized in Table A, are based on a 0 to 100 scale where 0 is no effect and 100 is complete control. A dash (-) response means no test results.

[2] = test system: giant foxtail (Setaria faberi)
Description: as §1, §2

[3] = test system: pigweed (Amaranthus retroflexus)
Description: as §1, §2

[4] = test system: large crabgrass (Digitaria sanguinalis)
Description: as §1, §2

[5] = test system: canarygrass (Phalaris minor)
Description: as §1, §2

[6] = test system: wheat (Triticum aestivum)
Description: as §1, §2

corn (Zea mays) = test system: corn (Zea mays)
Description: as §1, §2

[7] = test system: barnyardgrass (Echinochloa crus-galli)
Description: as §1, §2

[8] = Postemergence, 31 g ai/ha, 0 to 100 scale (0 no effect, 100 complete control)
[9] = Postemergence, 125 g ai/ha, 0 to 100 scale, 0 no effect, 100 complete control
[10] = Preemergence, 31 g ai/ha, 0 to 100 scale, 0 is no effect, 100 is complete control
[11] = Preemergence, 125 g ai/ha, 0 to 100 scale (0 no effect, 100 complete control)

In the case of `Cn1ncc(O)c(-c2nn(-c3ccc(C(F)(F)F)cc3)cc2Cl)c1=O` [Compound 88], the “Plant response rating, Blackgrass” value [1, 8] is reported as 10, the “Plant response rating, Blackgrass” value [1, 9] is reported as 70 and the “Plant response rating, Blackgrass” value [1, 10] is reported as 40. The “Plant response rating, Blackgrass” value [1, 11] was 80, the “Plant response rating, Foxtail, Giant” value [2, 8] was 40 and the “Plant response rating, Foxtail, Giant” value [2, 9] was 90. The “Plant response rating, Foxtail, Giant” value [2, 10] was 40, the “Plant response rating, Foxtail, Giant” value [2, 11] was 90 and the “Plant response rating, Pigweed” value [3, 8] was 0. For the same compound, the “Plant response rating, Pigweed” value [3, 9] was 0, the “Plant response rating, Pigweed” value [3, 10] was 0 and the “Plant response rating, Pigweed” value [3, 11] was 0. The “Plant response rating, Crabgrass, Large” value [4, 8] was 40, the “Plant response rating, Crabgrass, Large” value [4, 9] was 90 and the “Plant response rating, Crabgrass, Large” value [4, 10] was 0. The “Plant response rating, Crabgrass, Large” value [4, 11] was 90, the “Plant response rating, Canarygrass” value [5, 8] was 30 and the “Plant response rating, Canarygrass” value [5, 9] was 70. The “Plant response rating, Canarygrass” value [5, 10] was 0, the “Plant response rating, Canarygrass” value [5, 11] was 70 and the “Plant response rating, Wheat” value [6, 8] was 20. The “Plant response rating, Wheat” value [6, 9] was 60, the “Plant response rating, Wheat” value [6, 10] was 0 and the “Plant response rating, Wheat” value [6, 11] was 40. The “Plant response rating, Corn” value (corn (Zea mays); [8]) was 0, the “Plant response rating, Corn” value (corn (Zea mays); [9]) was 50 and the “Plant response rating, Corn” value (corn (Zea mays); [10]) was 0. For the same compound, the “Plant response rating, Corn” value (corn (Zea mays); [11]) was 20, the “Plant response rating, Barnyardgrass” value [7, 8] was 10 and the “Plant response rating, Barnyardgrass” value [7, 9] was 90. For the same compound, the “Plant response rating, Barnyardgrass” value [7, 10] was 0 and the “Plant response rating, Barnyardgrass” value [7, 11] was 90.
In the case of `CCc1cc(-c2ccc(Br)cc2)nn1-c1c(O)c(OC)nn(C)c1=O` [Compound 89], the “Plant response rating, Blackgrass” value [1, 8] is reported as 100, the “Plant response rating, Blackgrass” value [1, 9] is reported as 100 and the “Plant response rating, Blackgrass” value [1, 10] is reported as 90. For the same compound, the “Plant response rating, Blackgrass” value [1, 11] was 100, the “Plant response rating, Foxtail, Giant” value [2, 8] was 100 and the “Plant response rating, Foxtail, Giant” value [2, 9] was 100. For the same compound, the “Plant response rating, Foxtail, Giant” value [2, 10] was 90, the “Plant response rating, Foxtail, Giant” value [2, 11] was 100 and the “Plant response rating, Pigweed” value [3, 9] was 0. For the same compound, the “Plant response rating, Pigweed” value [3, 10] was 0, the “Plant response rating, Pigweed” value [3, 11] was 0 and the “Plant response rating, Crabgrass, Large” value [4, 8] was 100. For the same compound, the “Plant response rating, Crabgrass, Large” value [4, 9] was 100, the “Plant response rating, Crabgrass, Large” value [4, 10] was 70 and the “Plant response rating, Crabgrass, Large” value [4, 11] was 100. For the same compound, the “Plant response rating, Canarygrass” value [5, 8] was 100, the “Plant response rating, Canarygrass” value [5, 9] was 100 and the “Plant response rating, Canarygrass” value [5, 10] was 50. For the same compound, the “Plant response rating, Canarygrass” value [5, 11] was 100, the “Plant response rating, Wheat” value [6, 8] was 80 and the “Plant response rating, Wheat” value [6, 9] was 90. The “Plant response rating, Wheat” value [6, 10] was 40, the “Plant response rating, Wheat” value [6, 11] was 90 and the “Plant response rating, Corn” value (corn (Zea mays); [8]) was 100. For the same compound, the “Plant response rating, Corn” value (corn (Zea mays); [9]) was 100, the “Plant response rating, Corn” value (corn (Zea mays); [10]) was 50 and the “Plant response rating, Corn” value (corn (Zea mays); [11]) was 70. For the same compound, the “Plant response rating, Barnyardgrass” value [7, 8] was 100, the “Plant response rating, Barnyardgrass” value [7, 9] was 100 and the “Plant response rating, Barnyardgrass” value [7, 10] was 30. The “Plant response rating, Barnyardgrass” value [7, 11] was 100.
In the case of `COc1nn(C)c(=O)c(-n2nc(-c3ccc(Br)cc3)cc2C)c1O` [Compound 93], the “Plant response rating, Blackgrass” value [1, 8] is reported as 90, the “Plant response rating, Blackgrass” value [1, 9] is reported as 100 and the “Plant response rating, Blackgrass” value [1, 10] is reported as 30. For the same compound, the “Plant response rating, Blackgrass” value [1, 11] was 100, the “Plant response rating, Foxtail, Giant” value [2, 8] was 100 and the “Plant response rating, Foxtail, Giant” value [2, 9] was 100. For the same compound, the “Plant response rating, Foxtail, Giant” value [2, 10] was 90, the “Plant response rating, Foxtail, Giant” value [2, 11] was 100 and the “Plant response rating, Pigweed” value [3, 8] was 0. The “Plant response rating, Pigweed” value [3, 9] was 0, the “Plant response rating, Pigweed” value [3, 10] was 0 and the “Plant response rating, Pigweed” value [3, 11] was 0. The “Plant response rating, Crabgrass, Large” value [4, 8] was 100, the “Plant response rating, Crabgrass, Large” value [4, 9] was 100 and the “Plant response rating, Crabgrass, Large” value [4, 10] was 20. For the same compound, the “Plant response rating, Crabgrass, Large” value [4, 11] was 100, the “Plant response rating, Canarygrass” value [5, 8] was 80 and the “Plant response rating, Canarygrass” value [5, 9] was 100. The “Plant response rating, Canarygrass” value [5, 10] was 10, the “Plant response rating, Canarygrass” value [5, 11] was 90 and the “Plant response rating, Wheat” value [6, 8] was 70. The “Plant response rating, Wheat” value [6, 9] was 80, the “Plant response rating, Wheat” value [6, 10] was 50 and the “Plant response rating, Wheat” value [6, 11] was 80. The “Plant response rating, Corn” value (corn (Zea mays); [8]) was 80, the “Plant response rating, Corn” value (corn (Zea mays); [9]) was 100 and the “Plant response rating, Corn” value (corn (Zea mays); [10]) was 30. For the same compound, the “Plant response rating, Corn” value (corn (Zea mays); [11]) was 60, the “Plant response rating, Barnyardgrass” value [7, 8] was 100 and the “Plant response rating, Barnyardgrass” value [7, 9] was 100. The “Plant response rating, Barnyardgrass” value [7, 10] was 20 and the “Plant response rating, Barnyardgrass” value [7, 11] was 100.
